Data: the NIST ThermoML archive (doi:10.1021/je800672r)
Numbers after ± are expanded uncertainties.

Test: wn = mass fraction of the nth substance listed
Settings: Liquid

## NCC(=O)[O-].[Na+] [sodium glycinate] + O
298.15 K, w1 = 0.01
  mass density: 1011.96 ± 2.3 kg/m3
298.15 K, w1 = 0.05
  mass density: 1015.92 ± 2.4 kg/m3
298.15 K, w1 = 0.1
  mass density: 1034.52 ± 2.9 kg/m3
298.15 K, w1 = 0.15
  mass density: 1055.6 ± 3.4 kg/m3
298.15 K, w1 = 0.2
  mass density: 1083.52 ± 4.1 kg/m3
298.15 K, w1 = 0.3
  mass density: 1130.4 ± 5.2 kg/m3
313.15 K, w1 = 0.01
  mass density: 1002 ± 2 kg/m3
313.15 K, w1 = 0.05
  mass density: 1010.56 ± 2.2 kg/m3
313.15 K, w1 = 0.1
  mass density: 1029.68 ± 2.7 kg/m3
313.15 K, w1 = 0.15
  mass density: 1048.32 ± 3.2 kg/m3
313.15 K, w1 = 0.2
  mass density: 1076.44 ± 3.9 kg/m3
313.15 K, w1 = 0.3
  mass density: 1118 ± 4.9 kg/m3
323.15 K, w1 = 0.05
  mass density: 1005.12 ± 2.1 kg/m3
323.15 K, w1 = 0.1
  mass density: 1022.56 ± 2.5 kg/m3
323.15 K, w1 = 0.15
  mass density: 1042.92 ± 3.1 kg/m3
323.15 K, w1 = 0.2
  mass density: 1071 ± 3.8 kg/m3
323.15 K, w1 = 0.3
  mass density: 1112.76 ± 4.8 kg/m3
333.15 K, w1 = 0.01
  mass density: 996.72 ± 2.1 kg/m3
333.15 K, w1 = 0.05
  mass density: 1000.12 ± 2 kg/m3
333.15 K, w1 = 0.1
  mass density: 1017.56 ± 2.4 kg/m3
333.15 K, w1 = 0.15
  mass density: 1036.72 ± 2.9 kg/m3
333.15 K, w1 = 0.2
  mass density: 1066.48 ± 3.6 kg/m3
333.15 K, w1 = 0.3
  mass density: 1107.48 ± 4.7 kg/m3
343.15 K, w1 = 0.01
  mass density: 990.16 ± 2.2 kg/m3
343.15 K, w1 = 0.05
  mass density: 993.24 ± 2.2 kg/m3
343.15 K, w1 = 0.1
  mass density: 1010.76 ± 2.3 kg/m3
343.15 K, w1 = 0.15
  mass density: 1030.08 ± 2.8 kg/m3
343.15 K, w1 = 0.2
  mass density: 1061.2 ± 3.5 kg/m3
343.15 K, w1 = 0.3
  mass density: 1101.44 ± 4.5 kg/m3
353.15 K, w1 = 0.01
  mass density: 985.36 ± 2.4 kg/m3
353.15 K, w1 = 0.05
  mass density: 987.2 ± 2.3 kg/m3
353.15 K, w1 = 0.1
  mass density: 1005.32 ± 2.1 kg/m3
353.15 K, w1 = 0.15
  mass density: 1023.64 ± 2.6 kg/m3
353.15 K, w1 = 0.2
  mass density: 1054.48 ± 3.4 kg/m3
353.15 K, w1 = 0.3
  mass density: 1094.52 ± 4.4 kg/m3
